{
  "source": "PubChem BioAssay AID2060501",
  "about": "(Molecular Pharmacology Branch, DTP, NCI, 2025);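 further: spheroids exposed to compounds for 7 days before readout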;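 on viability, T/C: percent of vehicle DMSO control viability with 100% = untreated-like growth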",
  "tested_on": "282377-053-R-J1-PDC complex spheroids, viability",
  "assay": "Anticancer human tumor 282377-053-R-J1-PDC patient-derived colon adenocarcinoma cell line growth inhibition [GQUAD]",
  "details": "for IC50: curve of first compound; for viability, T/C: stronger effect = lower value",
  "text": "DNA G-quadruplex Stabilizer Agents in Combinations in Complex Spheroids\nA high-throughput screen of multi-cell type tumor spheroids was designed to identify active combinations of DNA G-quadruplex stabilizer agents and targeted small molecules. Complex spheroids include a stromal component modeled by human endothelial cells (HUVEC) and fibroblasts modeled by human mesenchymal stem cells (MSCs). The concentration ranges selected for each drug and investigational agent were based upon clinically achievable concentrations if the clinical Cmax of the agent was known.\nCompounds. The drugs and investigational agents: pidnarulex (CX-5461; NSC782164), APTO-253 (NSC789042), BRACO-19 (NSC847499), peposertib (NSC802822), ceralasertib (NSC780249), elimusertib (NSC800525), camonsertib (NSC841442), AZD-1390 (NSC803789), olaparib (NSC753686), talazoparib (NSC767125), ART-558 (NSC835418), sotorasib (NSC818433), MRTX-1133 (NSC836407), SN-38 (NSC673596), topotecan (NSC609699), etoposide (NSC141540), doxorubicin (NSC123127), gemcitabine (NSC613327), 5-fluorouracil (NSC19893), paclitaxel (NSC125973), vemurafenib (NSC761431), panobinostat (NSC761190), R-306465 (JNJ-16241199; NSC773264), adavosertib (NSC754352), TP-3654 (NSC805149), carboplatin (NSC241240), KSQ-4279 (NSC840948), and staurosporine (NSC755774) were obtained from the National Cancer Institute (NCI) Developmental Therapeutics Program Chemical Repository (34). The FDA-approved anticancer drug set is available from the NCI Developmental Therapeutics Program. […] The stock solutions were prepared in dimethyl sulfoxide (DMSO, Sigma-Aldrich, St. Louis, MO, cat. D2650) at 800-fold the tested concentration and stored at -70 degrees C prior to their use. All drugs and investigational agents were tested over a range starting from a high concentration at or near the clinical Cmax and decreasing in half-log increments. If the clinical Cmax for an agent had not been determined, the highest concentration tested was 10 microM.\n2.3 Cell Culture. All cells were maintained in an incubator at 37 degrees C and 5% CO2 with 95% humidity. The PDC lines were cultured according to standard operating procedures established by the NCI PDMR. All PDCs were thawed and cultured in Matrigel-coated flasks prepared with a working solution of 1X Ham's F-12 nutrient mix, without supplementation (Invitrogen, cat. 11765054), 100 U/mL penicillin-streptomycin (Invitrogen, cat. 15140122), and 2.5% Matrigel (Corning Inc., cat. 354248) for the first three passages. The 857933-349-R-J2-PDC line was cultured in 6C/Colon 1B media, which includes advanced DMEM/F-12 (Thermo Fisher Scientific, cat. 12634028), 10 mM HEPES (Thermo Fisher Scientific, cat. 15630080), 1X GlutaMAX supplement (Thermo Fisher Scientific, cat. 35050061), 0.1 mg/mL primocin (InvivoGen, cat. ant-pm-2), 10% defined fetal bovine serum, heat inactivated (HyClone Laboratories Inc., cat. SH30070.03HI), 50% L-WRN conditioned media (ATCC, cat. CRL-3276), 1.25 mM N-Acetyl-L-cysteine (Sigma-Aldrich, cat. A9165), 10 mM nicotinamide (Sigma-Aldrich, cat. N0636), 1X B-27 supplement (Thermo Fisher Scientific, cat. 17504044), 1X N-2 supplement (Thermo Fisher Scientific, cat. 17502048), 10 microM Y-27632 dihydrochloride (Tocris Bioscience, cat. 1254), and 50 ng/mL human EGF recombinant protein (Thermo Fisher Scientific, cat. PHG0311). The 485176-168-R4-J1-PDC line was cultured in Panc media, which includes all 6C/Colon 1B media components plus 100 ng/mL human FGF-10 (Thermo Fisher Scientific, cat. 100-26), 500 nM SB-431542 (Selleckchem, cat. S1067), and gastrin (Tocris, cat. 3006).\n[…]",
  "data": [
    {"smiles": "O=C(NO)c1cnc(N2CCN(S(=O)(=O)c3ccc4ccccc4c3)CC2)nc1", "note": "+ Cc1[nH]c2ccc(F)cc2c1-c1nc2c3cccnc3c3ncccc3c2[nH]1", "values": [
      {"measurement": "IC50", "setting": "second compound 0.0316 µM", "value": 56.3, "unit": "nM"},
      {"measurement": "IC50", "setting": "second compound 0.1 µM", "value": 55.3, "unit": "nM"},
      {"measurement": "IC50", "setting": "second compound 0.316 µM", "value": 45.2, "unit": "nM"},
      {"measurement": "IC50", "setting": "second compound 1 µM", "value": 40.2, "unit": "nM"},
      {"measurement": "IC50", "setting": "second compound 3.16 µM", "value": "< 31.6", "unit": "nM"},
      {"measurement": "IC50", "setting": "second compound 10 µM", "value": "< 31.6", "unit": "nM"},
      {"measurement": "viability, T/C", "setting": "second compound 0.0316 µM, first compound 0.0316 µM", "value": 78, "unit": "%"},
      {"measurement": "viability, T/C", "setting": "second compound 0.0316 µM, first compound 0.1 µM", "value": 17.6, "unit": "%"},
      {"measurement": "viability, T/C", "setting": "second compound 0.0316 µM, first compound 0.316 µM", "value": 18.6, "unit": "%"},
      {"measurement": "viability, T/C", "setting": "second compound 0.0316 µM, first compound 1 µM", "value": 19.8, "unit": "%"},
      {"measurement": "viability, T/C", "setting": "second compound 0.0316 µM, first compound 3.16 µM", "value": 24, "unit": "%"},
      {"measurement": "viability, T/C", "setting": "second compound 0.0316 µM, first compound 10 µM", "value": 30.6, "unit": "%"},
      {"measurement": "viability, T/C", "setting": "second compound 0.1 µM, first compound 0.0316 µM", "value": 78, "unit": "%"},
      {"measurement": "viability, T/C", "setting": "second compound 0.1 µM, first compound 0.1 µM", "value": 18.6, "unit": "%"},
      {"measurement": "viability, T/C", "setting": "second compound 0.1 µM, first compound 0.316 µM", "value": 16.4, "unit": "%"},
      {"measurement": "viability, T/C", "setting": "second compound 0.1 µM, first compound 1 µM", "value": 18.6, "unit": "%"},
      {"measurement": "viability, T/C", "setting": "second compound 0.1 µM, first compound 3.16 µM", "value": 21.2, "unit": "%"},
      {"measurement": "viability, T/C", "setting": "second compound 0.1 µM, first compound 10 µM", "value": 26.9, "unit": "%"},
      {"measurement": "viability, T/C", "setting": "second compound 0.316 µM, first compound 0.0316 µM", "value": 63.6, "unit": "%"},
      {"measurement": "viability, T/C", "setting": "second compound 0.316 µM, first compound 0.1 µM", "value": 18.4, "unit": "%"},
      {"measurement": "viability, T/C", "setting": "second compound 0.316 µM, first compound 0.316 µM", "value": 17.1, "unit": "%"},
      {"measurement": "viability, T/C", "setting": "second compound 0.316 µM, first compound 1 µM", "value": 18.1, "unit": "%"},
      {"measurement": "viability, T/C", "setting": "second compound 0.316 µM, first compound 3.16 µM", "value": 21.4, "unit": "%"},
      {"measurement": "viability, T/C", "setting": "second compound 0.316 µM, first compound 10 µM", "value": 22.9, "unit": "%"},
      {"measurement": "viability, T/C", "setting": "second compound 1 µM, first compound 0.0316 µM", "value": 58.7, "unit": "%"},
      {"measurement": "viability, T/C", "setting": "second compound 1 µM, first compound 0.1 µM", "value": 15.1, "unit": "%"},
      {"measurement": "viability, T/C", "setting": "second compound 1 µM, first compound 0.316 µM", "value": 19.3, "unit": "%"},
      {"measurement": "viability, T/C", "setting": "second compound 1 µM, first compound 1 µM", "value": 13.7, "unit": "%"},
      {"measurement": "viability, T/C", "setting": "second compound 1 µM, first compound 3.16 µM", "value": 16.1, "unit": "%"},
      {"measurement": "viability, T/C", "setting": "second compound 1 µM, first compound 10 µM", "value": 21.8, "unit": "%"},
      {"measurement": "viability, T/C", "setting": "second compound 3.16 µM, first compound 0.0316 µM", "value": 30.5, "unit": "%"},
      {"measurement": "viability, T/C", "setting": "second compound 3.16 µM, first compound 0.1 µM", "value": 7.85, "unit": "%"},
      {"measurement": "viability, T/C", "setting": "second compound 3.16 µM, first compound 0.316 µM", "value": 7.14, "unit": "%"},
      {"measurement": "viability, T/C", "setting": "second compound 3.16 µM, first compound 1 µM", "value": 6.02, "unit": "%"},
      {"measurement": "viability, T/C", "setting": "second compound 3.16 µM, first compound 3.16 µM", "value": 6.61, "unit": "%"},
      {"measurement": "viability, T/C", "setting": "second compound 3.16 µM, first compound 10 µM", "value": 7.81, "unit": "%"},
      {"measurement": "viability, T/C", "setting": "second compound 10 µM, first compound 0.0316 µM", "value": 19.7, "unit": "%"},
      {"measurement": "viability, T/C", "setting": "second compound 10 µM, first compound 0.1 µM", "value": 7.83, "unit": "%"},
      {"measurement": "viability, T/C", "setting": "second compound 10 µM, first compound 0.316 µM", "value": 5.03, "unit": "%"},
      {"measurement": "viability, T/C", "setting": "second compound 10 µM, first compound 1 µM", "value": 6.51, "unit": "%"},
      {"measurement": "viability, T/C", "setting": "second compound 10 µM, first compound 3.16 µM", "value": 4.71, "unit": "%"},
      {"measurement": "viability, T/C", "setting": "second compound 10 µM, first compound 10 µM", "value": 7.67, "unit": "%"}
    ]}
  ]
}
